Measurements taken from patent US7393825B2, “Microdose therapy” (Strakan International Limited, priority 1997, dated 2008).

Tests used:
renal vasculature = assay: Renal interstitial hydrostatic pressure (RIHP) and mean arterial pressure in anaesthetized rats
L-NAME treated rats = assay: Mean arterial pressure response to vasoactive infusions in control and L-NAME treated rats; assay type: in vivo, rat; settings: for shift of concentration-mean arterial pressure response curve after NO synthase blockade: L-NAME treated versus control rats
Experimental: The surgical method was based on the technique of Thompson et al (Hypertens. 20:809, 1992). […] The catheters were tunnelled subcutaneously and exteriorized at the back of the neck and sutured in place. Two days after surgery, MAP could be recorded (MacLab DAS, ADInstruments, Milford, Mass.). After connection, an equilibration period of approximately 30 minutes allowed for the determination of the steady state level of MAP before any recording began. Baseline MAP was determined from readings averaged over 5 minutes, taken from each rat at 15 minute intervals for at least 1 hour prior to the start of any experiment.
Rats were randomly assigned treatment with N^ω-nitro-L-arginine methyl ester (L-NAME) for 30 minutes (100 mg/kg, intraperitoneally) or 12 days (100 mg/kg, in drinking water) or tap water. Two days prior to the day of the experiment rats were instrumented with catheters, as described above. Following baseline measurements of MAP, rats were given a infusions of sodium nitroprusside (SNP, 0.5 to 32 ug/kg per minute dissolved in 0.9% sterile saline) with a step-wise increase in concentration every two minutes. Rats were allowed 30 minutes to recover from the SNP administration. Rats were then given infusions of glyceryl trinitrate (GTN, 0.5 to 32 ug/kg per minute dissolved in 0.9% sterile saline) with a step-wise increase in concentration every two minutes.
Throughout all of these pharmacological manipulations, MAP and HR were recorded at a sampling rate of 100 Hz and the data was stored on a disk drive for later analysis.

[1] = system: patients with previously diagnosed ED; assay: Clinical case studies in patients with erectile dysfunction; assay type: in vivo, human; settings: 0.2 mg/h patch
Experimental: Clinical Data: For erectile dysfunction reversal with microdoses of NO General Methods. Measurements were made in a clinical erectile dysfunction (ED) laboratory in patients with previously diagnosed ED. These patients were being evaluated for the purpose of optimization of their intracavernous injection dosing. All men were assessed using the Queen's University Human Sexuality Group Protocol (Kingston, Ontario, Canada).

[2] = Plasma concentration of glyceryl trinitrate after patch or spray delivery; assay type: in vivo, human; settings: 0.2 mg/h patch after 20 to 30 minutes
Experimental: The concentration of glyceryl trinitrate (the typical form of NO donor derived from Nitrospray or Nitropatches) has been reported in the literature for such delivery routes to be in the order of 200 to 400 pg/ml of plasma (Sun et al., J. Clin. Pharmacol. 35:390, 1995). Based on the clinical case studies performed, it was noted that the beneficial effects of a 0.2 mg/h patch are observed after 20 to 30 minutes. This corresponds to a plasma concentration of 100 pg/ml. In respect of the application of the invention to ED therapy a preferred range of NO agent (such as GTN) is a steady state plasma concentration of about 50 to about 200 pg/ml. This range corresponds to the “window” referred to above as illustrated in FIG. 4.

[3] = in vivo; cited from earlier work

## N=C(N)NCCC[C@H](N)C(=O)O [L-Arginine]
Renal vasculature; L-NAME treated, 150-200 mg/kg per min, FIG. 6
  renal vasoconstriction as measured by RIHP changes: reversed the renal vasoconstriction

## COC(=O)[C@@H](N)CCCNC(=N)N[N+](=O)[O-] [L-NAME, N^ω nitro-L-arginine methyl ester]
Renal vasculature; administration of NO synthase blocker, FIG. 5
  change in RIHP: sharp decline in RIHP
L-NAME treated rats; L-NAME alone
  hypertension following maximal NO synthase blockade: 40 mmHg

## CC(C)NCC(O)c1ccc(O)c(O)c1 (stereo not shown) [INE, isopropylnorepinephrine]
L-NAME treated rats
  shift of concentration-mean arterial pressure response curve after NO synthase blockade: identical both before and after nitric oxide synthase blockade

## COc1cc2nc(N3CCN(C(=O)c4ccco4)CC3)nc(N)c2cc1OC [prazosin]
L-NAME treated rats; FIG. 9
  increased sensitivity to nitric oxide donors following treatment: does not occur

## O=[N+]([O-])OCC(CO[N+](=O)[O-])O[N+](=O)[O-] [GTN, glyceryl trinitrate]
[1]
  time to beneficial effects: 20 to 30 min
[2]
  plasma concentration corresponding to onset of beneficial effects: 0.1 ng/mL
[3]
  plasma concentration reported in the literature: 0.2 to 0.4 ng/mL
L-NAME treated rats; L-NAME treated rats, concentrations that do not lower MAP in controls
  reversal of NO synthase blockade induced hypertension / excessive vasoconstriction: almost completely reversed
L-NAME treated rats
  shift of concentration-mean arterial pressure response curve after NO synthase blockade: shifted leftward
